Experimental data from patent US11332459B2 (TEIJIN PHARMA LIMITED, priority 2017, dated 2022).
Structures can show the parent of a compound that is named as a salt.

target: T1, human TRPC6 (Homo sapiens, UniProt Q9Y210); assay: TRPC6 calcium flux assay (FLIPR, OAG-stimulated calcium influx); format: cell-based; conditions: HEK293 cells stably transfected with human TRPC6, read-out: hTRPC6 Potency
T1 construct: expressed in transfected cells
T1 sequence (Q9Y210 1-931): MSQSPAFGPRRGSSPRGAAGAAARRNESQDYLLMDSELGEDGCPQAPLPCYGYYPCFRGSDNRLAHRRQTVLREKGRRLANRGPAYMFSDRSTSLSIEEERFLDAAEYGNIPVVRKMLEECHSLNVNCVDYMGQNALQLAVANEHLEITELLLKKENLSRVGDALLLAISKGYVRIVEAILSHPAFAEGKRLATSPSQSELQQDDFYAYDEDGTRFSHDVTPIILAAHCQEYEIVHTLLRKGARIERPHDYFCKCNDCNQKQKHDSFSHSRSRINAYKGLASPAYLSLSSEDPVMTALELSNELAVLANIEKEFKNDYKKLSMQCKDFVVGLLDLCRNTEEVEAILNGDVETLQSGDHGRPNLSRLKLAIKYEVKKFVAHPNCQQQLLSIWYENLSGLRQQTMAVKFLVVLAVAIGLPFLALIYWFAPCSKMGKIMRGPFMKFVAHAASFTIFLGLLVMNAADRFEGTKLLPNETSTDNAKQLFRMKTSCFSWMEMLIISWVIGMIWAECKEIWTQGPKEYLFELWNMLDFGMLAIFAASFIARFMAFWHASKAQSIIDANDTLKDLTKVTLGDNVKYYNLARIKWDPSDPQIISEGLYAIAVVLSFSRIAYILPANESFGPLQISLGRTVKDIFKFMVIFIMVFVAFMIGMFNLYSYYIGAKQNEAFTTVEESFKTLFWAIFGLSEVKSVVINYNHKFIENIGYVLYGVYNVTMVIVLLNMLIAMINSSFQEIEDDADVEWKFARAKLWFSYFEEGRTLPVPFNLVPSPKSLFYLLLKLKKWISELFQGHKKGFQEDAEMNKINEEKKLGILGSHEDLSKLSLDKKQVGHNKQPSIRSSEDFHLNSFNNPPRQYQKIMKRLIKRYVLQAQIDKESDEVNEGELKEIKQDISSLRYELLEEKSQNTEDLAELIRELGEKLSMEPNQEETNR
Procedure, shortened: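 IC50 derived by plotting background-corrected peak fluorescence (180 s window, normalized to OAG-triggered signal vs buffer) against dose. Stable human TRPC6 HEK293 line was dye-loaded, exposed to compound 25 min, then challenged with 50 uM final OAG in 2 mM Ca2+ HEPES buffer pH 7.2, 0.5% DMSO.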

Going from CN(CC(F)F)C(=O)Cn1c(N2CC[C@@H](F)[C@H](N)C2)nc2cc(F)c(F)cc21 (single isomer, unassigned) [Example 634] to N[C@@H]1CN(c2nc3cc(F)c(F)cc3n2CC(=O)N2CC(F)(F)C2)CC[C@H]1F [Example 428, 2-(2-((3R,4R)-3-amino-4-fluoropiperidin-1-yl)-5,6-difluoro-1H-benzo[d]imidazol-1-yl)-1-(3,3-difluoroazetidin-1-yl)ethanone], the IC50 falls from 260 nM to 18.3 nM (14-fold). The second is the more potent here.

First: N[C@@H]1CN(c2nc3cc(F)cc(F)c3n2Cc2ccc(Cl)cn2)CCC1(F)F [Example 229, (R)-1-(1-((5-chloropyridin-2-yl)methyl)-5,7-difluoro-1H-benzo[d]imidazol-2-yl)-4,4-difluoropiperidin-3-amine hydrochloride]
Second: N#Cc1ccc(Cn2c(N3CCC(F)(F)[C@H](N)C3)nc3c(Cl)cccc32)nc1 [Example 10, (R)-6-((2-(3-amino-4,4-difluoropiperidin-1-yl)-4-chloro-1H-benzo[d]imidazol-1-yl)methyl)nicotinonitrile]
The IC50 of the first is 7-fold higher: 42.2 nM for the first, 6.06 nM for the second.

CN[C@H]1CCCN(c2nc3ccccc3n2[C@@H](C)c2ccc(C#N)cn2)C1 [Example 256, 6-((1S)-1-(2-((3S)-3-(methylamino)-1-piperidinyl)-1H-benzimidazol-1-yl)ethyl)-3-pyridinecarbonitrile] and C[C@@H](c1ccc(C#N)cn1)n1c(N2CC[C@@H](F)[C@H](N)C2)nc2ccccc21 [Example 298, 6-((S)-1-(2-((3R,4R)-3-amino-4-fluoropiperidin-1-yl)-1H-benzo[d]imidazol-1-yl)ethyl)nicotinonitrile hydrochloride] are within 1.5-fold of each other in IC50: 19.4 nM for the first, 17.2 nM for the second.

First: CN[C@@H]1CN(c2nc3cc(F)cc(F)c3n2[C@H](C)c2ccc(C#N)cn2)CC[C@H]1F (single isomer, unassigned) [Example 440]
Second: COc1ccc2nc(N3CC[C@H](F)[C@H](N)C3)n(Cc3ccc(C#N)cc3)c2c1 [Example 403, 4-((2-((3R,4S)-3-amino-4-fluoropiperidin-1-yl)-6-methoxy-1H-benzo[d]imidazol-1-yl)methyl)benzonitrile]
The IC50 of the first is 3400-fold higher: 1340 nM for the first, 0.395 nM for the second.

First: COc1ccc2c(c1)nc(N1CC[C@@H](F)[C@H](N)C1)n2CC(=O)N(C)CC(F)(F)F [Example 449, 2-(2-((3R,4R)-3-amino-4-fluoropiperidin-1-yl)-5-methoxy-1H-benzo[d]imidazol-1-yl)-N-methyl-N-(2,2,2-trifluoroethyl)acetamide]
Second: CN(CC(F)(F)F)C(=O)Cn1c(N2CCC(F)(CN)C2)nc2cc(F)ccc21 (stereo not shown) [Example 487, 2-(2-(3-(aminomethyl)-3-fluoropyrrolidin-1-yl)-5-fluoro-1H-benzo[d]imidazol-1-yl)-N-methyl-N-(2,2,2-trifluoroethyl)acetamide]
The IC50 of the first is lower: 1160 nM for the first, > 3750 nM for the second.

N[C@@H]1CN(c2nc3ccc(F)cc3n2Cc2ncc(Cl)cn2)CC[C@H]1O (single isomer, unassigned) [Example 496] and N[C@@H]1CN(c2nc3ccc(F)cc3n2Cc2nc(C(F)(F)F)no2)CC[C@H]1F [Example 569, (3R,4R)-4-fluoro-1-(6-fluoro-1-((3-(trifluoromethyl)-1,2,4-oxadiazol-5-yl)methyl)-1H-benzo[d]imidazol-2-yl)piperidin-3-amine] are within 1.5-fold of each other in IC50: 61.1 nM for the first, 78.4 nM for the second.

N#Cc1ccc(Cn2c(N3CCC[C@]4(CCCCN4)C3)nc3ccccc32)nc1 [Example 129, 6-((2-((6R)-1,8-diazaspiro[5.5]undecan-8-yl)-1H-benzimidazol-1-yl)methyl)-3-pyridinecarbonitrile] and N#Cc1ccc(Cn2c(N3CC[C@@H]4CCN[C@H]4C3)nc3ccccc32)nc1 [Example 23, 6-((2-((3aS,7aR)-hexahydro-1H-pyrrolo[2,3-c]pyridin-6(2H)-yl)-1H-benzo[d]imidazol-1-yl)methyl)nicotinonitrile] cannot be ordered by IC50: > 3750 nM for the first, > 3750 nM for the second.

CC(C)N(C)C(=O)C1CCN(C(=O)Cn2c(N3CC[C@@H](F)[C@H](N)C3)nc3cc(F)c(F)cc32)CC1 [Example 542, 1-(2-(2-((3R,4R)-3-amino-4-fluoropiperidin-1-yl)-5,6-difluoro-1H-benzo[d]imidazol-1-yl)acetyl)-N-isopropyl-N-methylpiperidine-4-carboxamide] and CC1CCCN(C(=O)C2CCN(C(=O)Cn3c(N4CC[C@@H](F)[C@H](N)C4)nc4cc(F)c(F)cc43)CC2)C1 (stereo partly drawn) [Example 539, 2-(2-((3R,4R)-3-amino-4-fluoropiperidin-1-yl)-5,6-difluoro-1H-benzo[d]imidazol-1-yl)-1-(4-(3-methylpiperidine-1-carbonyl)piperidin-1-yl)ethan-1-one] cannot be ordered by IC50: > 3750 nM for the first, > 3750 nM for the second.

Going from N[C@@H]1CN(c2nc3cc(F)c(F)cc3n2CC(=O)N(C2CC2)C2CCS(=O)(=O)C2)CC[C@H]1F (stereo partly drawn) [Example 526, 2-(2-((3R,4R)-3-amino-4-fluoropiperidin-1-yl)-5,6-difluoro-1H-benzo[d]imidazol-1-yl)-N-cyclopropyl-N-(1,1-dioxidotetrahydrothiophen-3-yl)acetamide] to CC1CN(C(=O)Cn2c(N3CC[C@@H](F)[C@H](N)C3)nc3cc(F)c(F)cc32)CCO1 (mixture of isomers) [Example 507], the IC50 falls from 2850 nM to 102 nM (28-fold).

Going from CN[C@H]1CCCN(c2nc3ccccc3n2Cc2ccc(F)cn2)C1 [Example 253, (3S)-1-(1-((5-fluoro-2-pyridinyl)methyl)-1H-benzimidazol-2-yl)-N-methyl-3-piperidinamine] to N[C@H]1CCCN(c2nc3ccccc3n2Cc2ccc(Cl)cc2)C1 [Example 316, (S)-1-(1-(4-chlorobenzyl)-1H-benzo[d]imidazol-2-yl)piperidin-3-amine hydrochloride], the IC50 falls from 406 nM to 2.04 nM (200-fold).

Compared with COCC1(C#N)CCN(C(=O)Cn2c(N3CC[C@@H](F)[C@H](N)C3)nc3cc(F)c(F)cc32)CC1 [Example 658, 1-(2-(2-((3R,4R)-3-amino-4-fluoropiperidin-1-yl)-5,6-difluoro-1H-benzo[d]imidazol-1-yl)acetyl)-4-(methoxymethyl)piperidine-4-carbonitrile], N[C@@H]1CN(c2nc3cc(F)c(F)cc3n2CC(=O)N2CCN(c3ncccn3)CC2)CC[C@H]1F [Example 624, 2-(2-((3R,4R)-3-amino-4-fluoropiperidin-1-yl)-5,6-difluoro-1H-benzo[d]imidazol-1-yl)-1-(4-(pyrimidin-2-yl)piperazin-1-yl)ethanone] is lower in IC50: > 3750 nM for the first, 102 nM for the second. The second is the more potent here.

First: N#Cc1ccc(Cn2c(N3CC[C@@H](F)[C@H](N)C3)nc3c(Cl)cccc32)cc1 [Example 408, 4-((2-((3R,4R)-3-amino-4-fluoropiperidin-1-yl)-4-chloro-1H-benzo[d]imidazol-1-yl)methyl)benzonitrile]
Second: COc1ccc2c(c1)nc(N1CCC[C@H](N)C1)n2Cc1ccc(C#N)cn1 [Example 143, (S)-6-((2-(3-aminopiperidin-1-yl)-5-methoxy-1H-benzo[d]imidazol-1-yl)methyl)nicotinonitrile 2,2,2-trifluoroacetate]
The IC50 of the first is 7.4-fold lower: 0.924 nM for the first, 6.86 nM for the second.

For N#Cc1ccc(Cn2c(N3CCC(F)(F)[C@H](N)C3)nc3cc(C#N)ccc32)nc1 [Example 56, (R)-2-(3-amino-4,4-difluoropiperidin-1-yl)-1-((5-cyanopyridin-2-yl)methyl)-1H-benzo[d]imidazole-5-carbonitrile], the IC50 was 13.5 nM.
